Structures can show the parent of a compound that is named as a salt. Where two headings read alike, the source gives them in different places.
Assays:
MPO [1] = target: T1, MPO (Homo sapiens, UniProt P05164); test: Myeloperoxidase inhibition (MPO) assay, taurine chloramine production by the MPO/H2O2/Cl- system; type: biochemical; conditions: for 1/IC50: inhibition capability expressed as 1/IC50
T1 construct: made in house
T1 sequence (P05164 49-745): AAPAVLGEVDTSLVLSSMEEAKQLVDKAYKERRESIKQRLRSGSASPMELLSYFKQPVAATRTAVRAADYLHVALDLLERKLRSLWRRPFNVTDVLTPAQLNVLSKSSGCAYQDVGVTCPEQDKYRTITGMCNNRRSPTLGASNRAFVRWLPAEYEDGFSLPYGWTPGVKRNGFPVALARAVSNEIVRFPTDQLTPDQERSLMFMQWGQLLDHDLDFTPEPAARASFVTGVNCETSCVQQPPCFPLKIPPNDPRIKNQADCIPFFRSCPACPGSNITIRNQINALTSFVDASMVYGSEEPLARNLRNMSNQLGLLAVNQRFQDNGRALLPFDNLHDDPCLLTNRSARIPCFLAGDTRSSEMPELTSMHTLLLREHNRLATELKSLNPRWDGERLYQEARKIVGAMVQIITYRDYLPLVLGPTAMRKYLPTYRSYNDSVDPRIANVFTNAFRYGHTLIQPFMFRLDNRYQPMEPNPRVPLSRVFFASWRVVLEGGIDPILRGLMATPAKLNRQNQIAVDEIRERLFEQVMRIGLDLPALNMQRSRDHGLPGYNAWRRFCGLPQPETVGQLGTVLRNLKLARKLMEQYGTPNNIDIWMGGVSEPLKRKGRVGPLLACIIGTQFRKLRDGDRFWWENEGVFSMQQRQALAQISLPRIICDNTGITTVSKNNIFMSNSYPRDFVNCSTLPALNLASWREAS
Excerpt: The assay was based on the production of taurine chloramine produced by the MPO/H2O2/Cl^− system in the presence of a selected inhibitor at defined concentration. The procedure for detecting the inhibition of myeloperoxidase has been described in Van Antwerpen et al. (Development and validation of a screening procedure for the assessment of inhibition using a recombinant enzyme, Talanta, 2008, 75(2), 503-510) and is incorporated herewith by reference. Briefly, the reaction mixture contained the following reagents in a final volume of 200 μl: pH 7.4 phosphate buffer (PO4^3−10 mM/NaCl 300 mM), taurine (15 mM), a compound to be tested (up to 20 μM), and the fixed amount of the recombinant MPO (6.6 μl of MPO batch solution diluted 2.5 times, 40 nM). When necessary, the volume was adjusted with water. This mixture was incubated at 37° C. and the reaction initiated with 10.0 μl of H2O2 (100 μM). After 5 minutes, the reaction was stopped by the addition of 10 μl of catalase (8 U/μl). To determine the amount of taurine chloramines produced, 50 μl of 1.35 mM solution of thionitrobenzoic acid were added and the volume adjusted to 300 μl with water. Then, the absorbance of the solutions was measured at 412 nm with a microplate reader and the curve of the absorbance as a function of the inhibitor concentration was plotted. IC50 values against myeloperoxidase enzyme were then determined using standard procedures taking into account the absence of hydrogen peroxide as 100% of inhibition and the absence of inhibitors as 0% of inhibition.

MPO [2] = target: T1, MPO; test: Inhibition of LDL oxidation by MPO, ELISA with Mab AG9; type: biochemical; conditions: for remaining activity at 0.05 µM / remaining activity at 0.1 µM / remaining activity at 1 µM / LDL oxidation (%): 5 min
Method: Recombinant MPO was prepared as previously described. Each batch solution is characterized by its protein concentration (mg/ml), its activity (U/ml), and its specific activity (U/mg). The chlorination activity was determined according to Hewson and Hager. Human plasma served for the isolation of LDL by ultracentrifugation according to Havel et al. Before oxidation, the LDL fraction (1.019<d<1.067 g/ml) was desalted by two consecutive passages through PD10 gel-filtration columns (Amersham Biosciences, The Netherlands) using PBS buffer. The different steps were carried out in the dark and the protein concentration was measured by the Lowry assay for both MPO and LDL.
The LDL oxidation was carried out at 37° C. in a final volume of 500 μl. The reaction mixture contained the following reagents at the final concentrations indicated between brackets: pH 7.2, PBS buffer, MPO (1 μg/ml), LDL (1000 μg/ml), 2 μl HCl 1N (4 mM), a compound of formula (Ia) of the present invention (50, 100 and 1000 nM), and H2O2 (100 μM). The reaction was stopped after 5 min by cooling the tubes in ice. The assay was performed as described by Moguilevsky et al. (Moguilevsky N., Zouaoui Boudjeltia Z., Babar S., Delrée P., Legssyer I., Carpentier Y., Vanhaeverbeek M., Ducobu J. Monoclonal antibodies against LDL progressively oxidized by myeloperoxidase react with ApoB-100 protein moiety and human atherosclerotic lesions. Biochem. Biophys. Res. Commun. 2004, 323, 1223-1228) in a NUNC maxisorp plate (VWR, Zaventem, Belgium): 200 ng/well of LDL was coated overnight at 4° C. in a sodium bicarbonate pH 9.8 buffer (100 μl). Afterwards, the plate was washed with TBS 80 buffer and then saturated during 1 h at 37° C. with the PBS buffer containing 1% BSA (150 μl/well). After washing the wells twice with the TBS 80 buffer, the monoclonal antibody Mab AG9 (200 ng/well) obtained according to a standard protocol and as previously described was added as a diluted solution in PBS buffer with 0.5% BSA and 0.1% of Polysorbate 20. After incubation for 1 h at 37° C., the plate was washed four times with the TBS 80 buffer and a 3000 times diluted solution of Ig G anti-mouse Alkaline Phosphatase (Promega, Leiden, The Netherlands) in the same buffer was added (100 μl/well). The wells were washed again four times and a revelation solution (150 μl/well) containing 5 mg of para-nitrophenyl phosphate in 5 ml of diethanolamine buffer was added for 30 min at room temperature. The reaction was stopped with 60 μl/well of NaOH 3 N solution. The measurement of the absorbance was performed at 405 nm with a background correction at 655 nm with a Bio-Rad photometer for a 96-well plate (Bio-Rad laboratories, CA, USA). Results were expressed as means of the percentage of LDL oxidation for six independent measurements.

[3] = recombinant MPO 40 nM, pH 7.4 phosphate buffer, 37° C., H2O2 100 μM, 5 minutes
[4] = pH 7.2, read-out: LDL oxidation (%)
[5] = pH 7.2, compound 50 nM, MPO 1 μg/ml, LDL 1000 μg/ml, pH 7.2, 37° C., mean of six measurements, read-out: LDL oxidation (%)
[6] = pH 7.2, compound 100 nM, MPO 1 μg/ml, LDL 1000 μg/ml, pH 7.2, 37° C., mean of six measurements, read-out: LDL oxidation (%)
[7] = pH 7.2, compound 1000 nM, MPO 1 μg/ml, LDL 1000 μg/ml, pH 7.2, 37° C., mean of six measurements, read-out: LDL oxidation (%)
[8] = value given in nM in the text on FIG. 2
[9] = compound 50 nM, MPO 1 μg/ml, LDL 1000 μg/ml, pH 7.2, 37° C., mean of six measurements
[10] = compound 100 nM, MPO 1 μg/ml, LDL 1000 μg/ml, pH 7.2, 37° C., mean of six measurements
[11] = compound 1000 nM, MPO 1 μg/ml, LDL 1000 μg/ml, pH 7.2, 37° C., mean of six measurements

NCCc1c[nH]c2ccc(F)cc12 [Compound A, 5-fluorotryptamine, reference compound]
1/IC50 (MPO [1]): 5 ± 0.6 µM⁻¹ | IC50 (MPO [1]; [3]): 200 nM | remaining activity at 0.05 µM (MPO [2]; [4]): 119% | remaining activity at 0.1 µM (MPO [2]; [4]): 111% | remaining activity at 1 µM (MPO [2]; [4]): 41.5% | inhibition of LDL oxidation (in words) (MPO [2]; irrespective of its concentration in the medium): poorly effective

NCCCc1c[nH]c2ccc(F)cc12 [Compound B, 3-(3-Aminopropyl)-5-fluoro-[1H]-indole]
1/IC50 (MPO [1]): 20 ± 4 µM⁻¹ | IC50 (MPO [1]; [3]): 50 ± 8 nM | remaining activity at 0.05 µM (MPO [2]; [5]): 26% | remaining activity at 0.1 µM (MPO [2]; [6]): 19% | remaining activity at 1 µM (MPO [2]; [7]): 9% | inhibition of LDL oxidation (in words) (MPO [2]; at low concentration): excellent results

NCCCCc1c[nH]c2ccc(F)cc12 [Compound C, 3-(4-Aminobutyl)-5-fluoro-[1H]-indole oxalate]
1/IC50 (MPO [1]): 72 ± 19 µM⁻¹ | IC50 (MPO [1]; [3]): 15 nM | IC50 (MPO [1]; [8]): 15 ± 4 nM | remaining activity at 0.05 µM (MPO [2]; [5]): < 18.5% | remaining activity at 0.1 µM (MPO [2]; [6]): < 18.5% | remaining activity at 1 µM (MPO [2]; [7]): 6.1% | inhibition of LDL oxidation (in words) (MPO [2]; at low concentration): powerful performance

CN(C)CCc1c[nH]c2ccc(F)cc12 [Compound D, N,N-Dimethyl-3-(2-aminoethyl)-5-fluoro-[1H]-indole]
1/IC50 (MPO [1]): 14 ± 7 µM⁻¹ | IC50 (MPO [1]; [3]): 90 ± 60 nM | remaining activity at 0.05 µM (MPO [2]; [4]): 91.7% | remaining activity at 0.1 µM (MPO [2]; [4]): 64.2% | remaining activity at 1 µM (MPO [2]; [4]): 9.9%

Fc1ccc2[nH]cc(CCN3CCCC3)c2c1 [Compound E, 5-Fluoro-3-[2-(1-pyrrolidinyl)ethyl]-[1H]-indole]
1/IC50 (MPO [1]): 32 ± 19 µM⁻¹ | IC50 (MPO [1]; [3]): 40 ± 30 nM | remaining activity at 0.05 µM (MPO [2]; [4]): 49.2% | remaining activity at 0.1 µM (MPO [2]; [4]): 47.9% | remaining activity at 1 µM (MPO [2]; [4]): 12.1%

CCN(CC)CCc1c[nH]c2ccc(F)cc12 [Compound F, N,N-Diethyl-3-(2-aminoethyl)-5-fluoro-[1H]-indole]
1/IC50 (MPO [1]): 7 ± 3 µM⁻¹ | IC50 (MPO [1]; [3]): 160 ± 80 nM | remaining activity at 0.05 µM (MPO [2]; [4]): 80.1% | remaining activity at 0.1 µM (MPO [2]; [4]): 60.2% | remaining activity at 1 µM (MPO [2]; [4]): 8%

CN(C)CCCc1c[nH]c2ccc(F)cc12 [Compound H, N,N-Dimethyl-3-(3-aminopropyl)-5-fluoro-[1H]indole tartrate]
1/IC50 (MPO [1]): 11 ± 8 µM⁻¹ | IC50 (MPO [1]; [3]): 130 ± 90 nM | remaining activity at 0.05 µM (MPO [2]; [5]): 42.4% | remaining activity at 0.1 µM (MPO [2]; [6]): 39.7% | remaining activity at 1 µM (MPO [2]; [7]): 8.4%

NCCCCCc1c[nH]c2ccc(F)cc12 [Compound K, 3-(5-Aminopentyl)-5-fluoro-[1H]-indole oxalate]
1/IC50 (MPO [1]): 122 ± 15 µM⁻¹ | IC50 (MPO [1]; [3]): 8 nM | IC50 (MPO [1]; [8]): 8 ± 1 nM | remaining activity at 0.05 µM (MPO [2]; [5]): 29.5% | remaining activity at 0.1 µM (MPO [2]; [6]): 23.4% | remaining activity at 1 µM (MPO [2]; [7]): 3.2% | inhibition of LDL oxidation (in words) (MPO [2]; at low concentration): powerful performance

NCCCCCCc1c[nH]c2ccc(F)cc12 [Compound L, 3-(6-Aminohexyl)-5-fluoro-[1H]-indole oxalate]
1/IC50 (MPO [1]): 3.8 ± 0.2 µM⁻¹ | IC50 (MPO [1]; [3]): 260 ± 10 nM | remaining activity at 0.05 µM (MPO [2]; [5]): 91.8% | remaining activity at 0.1 µM (MPO [2]; [6]): 56.1% | remaining activity at 1 µM (MPO [2]; [7]): 18.2%

N-Methyl-3-(3-aminopropyl)-5-fluoro-[1H]-indole tartrate [Compound G]
1/IC50 (MPO [1]): 6 ± 2 µM⁻¹ | IC50 (MPO [1]; [3]): 200 ± 200 nM | inhibition of LDL oxidation (in words) (MPO [2]; at low concentration): excellent results | LDL oxidation (%) (MPO [2]; [9]): 32.9% | LDL oxidation (%) (MPO [2]; [10]): 24.8% | LDL oxidation (%) (MPO [2]; [11]): 10.2%

N-Propyl-3-(3-aminopropyl)-5-fluoro-[1H]-indole [Compound J]
1/IC50 (MPO [1]): 6 ± 1 µM⁻¹ | IC50 (MPO [1]; [3]): 170 ± 30 nM | LDL oxidation (%) (MPO [2]; [9]): 79.9% | LDL oxidation (%) (MPO [2]; [10]): 42.5% | LDL oxidation (%) (MPO [2]; [11]): 5.6%

— US20120122948A1, “3-ALKYL-5-FLUOROINDOLE DERIVATIVES AS MYELOPEROXIDASE INHIBITORS” (UNIVERSITE LIBRE DE BEUXELLES, priority 2009, published 2012)
